Biological target: T1, hNLRP3 (Homo sapiens, UniProt Q96P20)
T1 construct: THP-1 cells were purchased from the American Type Culture Collection; host or cells: THP-1 cells, PMA-differentiated, stimulated with gramicidin
Test: IL-1β production in PMA-differentiated THP-1 cells stimulated with gramicidin (hTHP-1 assay)
Type: cell-based
Conditions: read-out: NLRP3 Antagonist, hNLRP3 (THP-1, IL-1b) Normalized: GeoMean IC50

T1 sequence (Q96P20 whole entry): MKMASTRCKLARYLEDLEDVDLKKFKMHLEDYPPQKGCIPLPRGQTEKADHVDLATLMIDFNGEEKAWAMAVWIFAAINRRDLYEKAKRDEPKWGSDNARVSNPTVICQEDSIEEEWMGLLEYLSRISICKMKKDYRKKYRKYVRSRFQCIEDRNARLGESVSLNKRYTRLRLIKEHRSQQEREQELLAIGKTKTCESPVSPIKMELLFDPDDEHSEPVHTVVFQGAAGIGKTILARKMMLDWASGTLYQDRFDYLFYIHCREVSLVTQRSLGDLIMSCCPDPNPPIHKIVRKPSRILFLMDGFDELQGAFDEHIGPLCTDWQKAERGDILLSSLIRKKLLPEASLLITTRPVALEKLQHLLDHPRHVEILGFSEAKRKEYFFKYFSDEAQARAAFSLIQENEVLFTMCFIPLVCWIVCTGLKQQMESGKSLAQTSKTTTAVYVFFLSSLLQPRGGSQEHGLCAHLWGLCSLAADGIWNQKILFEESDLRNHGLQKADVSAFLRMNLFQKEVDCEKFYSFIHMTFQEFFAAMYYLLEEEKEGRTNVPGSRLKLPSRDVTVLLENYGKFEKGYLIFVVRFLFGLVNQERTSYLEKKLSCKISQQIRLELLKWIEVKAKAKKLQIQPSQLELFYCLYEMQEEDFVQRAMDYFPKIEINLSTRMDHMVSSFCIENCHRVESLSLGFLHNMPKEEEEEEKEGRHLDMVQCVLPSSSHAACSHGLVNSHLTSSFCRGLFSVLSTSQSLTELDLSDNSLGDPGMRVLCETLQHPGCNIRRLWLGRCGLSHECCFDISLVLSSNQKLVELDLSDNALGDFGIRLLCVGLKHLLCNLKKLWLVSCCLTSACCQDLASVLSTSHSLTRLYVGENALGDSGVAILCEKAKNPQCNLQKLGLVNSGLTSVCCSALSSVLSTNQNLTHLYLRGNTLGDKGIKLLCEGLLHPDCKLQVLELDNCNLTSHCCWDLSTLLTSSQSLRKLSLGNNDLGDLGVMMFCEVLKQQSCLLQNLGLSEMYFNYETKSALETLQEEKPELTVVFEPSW

**Q.** For CC(C)(O)c1ccc2c(c1)C(=O)NS2(=O)=NC(=O)Nc1c2c(cc3c1CCC3)CCC2 (stereo not shown) [Compound 121, 1-(1,2,3,5,6,7-hexahydro-s-indacen-4-yl)-3-(5-(2-hydroxypropan-2-yl)-1-oxido-3-oxo-2,3-dihydro-1l4-benzo[d]isothiazol-1-ylidene)urea], which IC50 is on record?
**A.** 0.2 to 1 µM

**Q.** For CN(C)Cc1ccc2c(c1)CNS2(=O)=NC(=O)Nc1c2c(cc3c1CCC3)CCC2 (stereo not shown) [Compound 122, 1-{5-[(dimethylamino)methyl]-1-oxo-2,3-dihydro-1$l6,2-benzothiazol-1-ylidene}-3-(1,2,3,5,6,7-hexahydro-s-indacen-4-yl)urea], which IC50 is on record?
**A.** 5 to 30 µM

**Q.** How did the IC50 turn out when CC(C)c1cc(C(F)F)cc(C(C)C)c1CC(=O)N=S1(=O)NC(=O)c2ccccc21 (stereo not shown) [Compound 123a] was run?
**A.** > 30 µM

**Q.** CC(C)c1cc(C(F)F)cc(C(C)C)c1CC(=O)N=S1(=O)NC(=O)c2cc(CN(C)C)ccc21 (stereo not shown) [Compound 124, 2-[4-(difluoromethyl)-2,6-bis(propan-2-yl)phenyl]-N-{5-[(dimethylamino)methyl]-1,3-dioxo-2,3-dihydro-1$l6,2-benzothiazol-1-ylidene}acetamide] was tested. Which IC50 did it give?
**A.** > 30 µM

**Q.** CN(C)Cc1ccc2c(c1)C(=O)NS2(=O)=NC(=O)Nc1c2c(cc3c1CCC3)CCC2 (stereo not shown) [Compound 125, 1-{5-[(dimethylamino)methyl]-1,3-dioxo-2,3-dihydro-1$l6,2-benzothiazol-1-ylidene}-3-(1,2,3,5,6,7-hexahydro-s-indacen-4-yl)urea] was tested. Which IC50 did it give?
**A.** 5 to 30 µM

**Q.** Which IC50 does the source give for CC(C)(O)c1ccc2c(c1)S(=O)(=NC(=O)Nc1c3c(cc4c1CCC4)CCC3)NC2 (stereo not shown) [Compound 126, 1-(1,2,3,5,6,7-hexahydro-s-indacen-4-yl)-3-[6-(2-hydroxypropan-2-yl)-1-oxo-2,3-dihydro-1-^λ-6,2-benzothiazol-1-ylidene]urea] here?
**A.** > 30 µM

**Q.** For O=C(Nc1c2c(cc3c1CCC3)CCC2)NS1(=O)=NC(=O)c2ccc(Cl)cc21 (stereo not shown) [Compound 128, 3-(6-chloro-1,3-dioxo-2,3-dihydro-1-^λ-6,2-benzothiazol-1-ylidene)-1-(1,2,3,5,6,7-hexahydro-s-indacen-4-yl)urea], which IC50 is on record?
**A.** 5 to 30 µM

**Q.** For O=C(N=S1(=O)CC2(COC2)C(=O)N1)Nc1c2c(cc3c1CCC3)CCC2 (stereo not shown) [Compound 132, 1-(1,2,3,5,6,7-hexahydro-s-indacen-4-yl)-3-(6-oxido-8-oxo-2-oxa-6l6-thia-7-azaspiro[3.4]octan-6-ylidene)urea], which IC50 is on record?
**A.** 1 to 5 µM

**Q.** For CN(C)Cc1ccc2c(c1)S(=O)(=NC(=O)Nc1c3c(cc4c1CCC4)CCC3)NC2 (stereo not shown) [Compound 133, 1-(6-((dimethylamino)methyl)-1-oxido-2,3-dihydro-1l4-benzo[d]isothiazol-1-ylidene)-3-(1,2,3,5,6,7-hexahydro-s-indacen-4-yl)urea], which IC50 is on record?
**A.** 5 to 30 µM

**Q.** COC(=O)c1ccc2c(c1)S(=O)(=NC(=O)Nc1c3c(cc4c1CCC4)CCC3)NC2=O (stereo not shown) [Compound 134, methyl 1-(((1,2,3,5,6,7-hexahydro-s-indacen-4-yl)carbamoyl)imino)-3-oxo-2,3-dihydro-1H-1l4-benzo[d]isothiazole-6-carboxylate 1-oxide] was tested. Which IC50 did it give?
**A.** 5 to 30 µM

**Q.** Which IC50 does the source give for O=C(N=S1(=O)CC2(CN1)COC2)Nc1c2c(cc3c1CCC3)CCC2 (stereo not shown) [Compound 139b] here?
**A.** > 30 µM

**Q.** For O=C(N=S1(=O)NC(=O)c2ccc(CN3CCC3)cc21)Nc1c2c(cc3c1CCC3)CCC2 (stereo not shown) [Compound 204, 1-(6-(azetidin-1-ylmethyl)-1-oxido-3-oxo-2,3-dihydro-1l4-benzo[d]isothiazol-1-ylidene)-3-(1,2,3,5,6,7-hexahydro-s-indacen-4-yl)urea], which IC50 is on record?
**A.** 0.2 to 1 µM

**Q.** With C=C(C)c1ccc2c(c1)S(=O)(=NC(=O)Nc1c3c(cc4c1CCC4)CCC3)NC2=O (stereo not shown) [Compound 207, 1-(1,2,3,5,6,7-hexahydro-s-indacen-4-yl)-3-(1-oxido-3-oxo-6-(prop-1-en-2-yl)-2,3-dihydro-1l4-benzo[d]isothiazol-1-ylidene)urea] as the compound, how does the IC50 read?
**A.** 5 to 30 µM

From patent US12134611B2, “Compounds and compositions for treating conditions associated with NLRP activity” (Novartis AG, priority 2018, dated 2024)
